Measured values as given in patent US20100099314A1, “IONIC LIQUIDS DERIVED FROM SURFACTANTS” (priority 2004, published 2010).

Test: Water Miscibility Test
Type: physicochemical
Details: 0.5 g ionic liquid and 4.5 g de-ionized water, sonicated 1.5 hours; miscible if homogenous transparent system within 15 minutes of standing
Procedure: The water miscibility of an ionic liquid is measured by the following water miscibility test. A mixture of 0.5 g ionic liquid and 4.5 g de-ionized water are sonicated in a Bransonic Ultrasonic Bath (model# 1210R-MTH, 50/60 Hz, 117 volts, 1.3 AMPS) according to manufacture's specifications for 1.5 hours. Thereafter, if a homogenous transparent system results within 15 minutes of standing without agitation, then the ionic liquid is water miscible.

Row | SMILES | Water Miscible?
1 | CC(C)CC(C)CC(CC(C)C)OCCOCCOCCOS(=O)(=O)[O-].CCCCCCCCCCCC[N+](C)(C)O (centres unmarked) [Example 1, N-dodecyl-N,N-dimethylamine N-oxide 2,4,8-trimethylnonyl-6-triethoxysulfate] | No
2 | CCCCCCCCCCCCOCCOS(=O)(=O)[O-].CCCCCCCCCCCC[N+](C)(C)O [Example 2, N-dodecyl-N,N-dimethylamine N-oxide dodecylethoxysulfate] | No
